Paper PMC9851200, “Multiparameter phenotypic screening for endogenous TFEB and TFE3 translocation identifies novel chemical series modulating lysosome function” (Autophagy, 2022)
Like-named read-outs stand apart in the source and are kept apart here.

How the values were obtained:
Experiment in all cases: biochemical
Format in all cases: binding
[1] = target: cellular kinases of SH-SY5Y cells (Homo sapiens, UniProt P41743); settings: 2µM; SH-SY5Y cells; Labeling Site Lys1; IYAMKVVK; read-out: KiNativ in-cell binding, % Inhibition, PRKCI/PKCi
Excerpt: (§1) As KINOMEscan is an in vitro assay, and as different cell types have variable kinase expression profiles we sought to determine the kinase binding profile in our SH-SY5Y TFEB-relocalization cell model. […] Bound kinases were pulled down and analyzed by mass spectrometry to determine the in situ kinase binding profile for each compound.

[2] = test system: cellular kinases of SH-SY5Y cells
Excerpt: as §1

[3] = target: T1, cellular kinases of SH-SY5Y cells (Homo sapiens, UniProt Q58A45); settings: 2µM, SH-SY5Y cells, labeling site ATP
T1 construct: endogenous in cells; host or cells: SH-SY5Y
T1 sequence (Q58A45 whole entry): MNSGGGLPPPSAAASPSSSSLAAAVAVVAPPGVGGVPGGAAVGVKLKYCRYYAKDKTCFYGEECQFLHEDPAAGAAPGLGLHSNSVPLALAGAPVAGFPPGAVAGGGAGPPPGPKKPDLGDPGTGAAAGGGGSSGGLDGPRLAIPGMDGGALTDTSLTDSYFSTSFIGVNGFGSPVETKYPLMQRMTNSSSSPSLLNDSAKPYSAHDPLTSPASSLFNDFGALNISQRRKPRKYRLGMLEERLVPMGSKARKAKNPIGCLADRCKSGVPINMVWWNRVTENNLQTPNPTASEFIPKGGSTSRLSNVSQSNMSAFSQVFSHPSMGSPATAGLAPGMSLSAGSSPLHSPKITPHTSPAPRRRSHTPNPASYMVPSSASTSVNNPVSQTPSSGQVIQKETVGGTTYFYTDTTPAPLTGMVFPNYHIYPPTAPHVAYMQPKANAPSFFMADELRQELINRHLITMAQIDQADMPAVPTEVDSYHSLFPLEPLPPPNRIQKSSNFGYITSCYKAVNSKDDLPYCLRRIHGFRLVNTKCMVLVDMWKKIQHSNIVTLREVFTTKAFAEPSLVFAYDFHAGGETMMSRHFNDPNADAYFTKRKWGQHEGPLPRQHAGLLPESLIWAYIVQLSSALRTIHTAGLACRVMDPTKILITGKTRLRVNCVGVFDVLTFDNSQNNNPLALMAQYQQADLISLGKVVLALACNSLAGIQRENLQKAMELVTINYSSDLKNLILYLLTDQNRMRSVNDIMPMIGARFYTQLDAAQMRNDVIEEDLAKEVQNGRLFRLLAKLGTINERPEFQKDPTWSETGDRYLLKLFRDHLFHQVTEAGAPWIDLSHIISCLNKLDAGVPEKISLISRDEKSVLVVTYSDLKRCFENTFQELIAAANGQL
Excerpt: as §1

[4] = target: cellular kinases of SH-SY5Y cells (Homo sapiens, UniProt Q13555); settings: 2µM; SH-SY5Y cells; Labeling Site Lys1; TSTQEYAAKIINTK; read-out: KiNativ in-cell binding, % Inhibition, CaMK2g
Excerpt: as §1

[5] = target: cellular kinases of SH-SY5Y cells (Homo sapiens, UniProt P31749); settings: 2µM; SH-SY5Y cells; Labeling Site ATP Loop; GTFGKVILVK; read-out: KiNativ in-cell binding, % Inhibition, AKT1
Excerpt: as §1

[6] = target: T2, cellular kinases of SH-SY5Y cells (Homo sapiens, UniProt P51956); settings: 2µM; SH-SY5Y cells; Labeling Site Activation Loop; SKNIFLTQNGK; read-out: KiNativ in-cell binding, % Inhibition, NEK3
T2 construct: endogenous in cells; host or cells: SH-SY5Y
Excerpt: as §1

[7] = target: cellular kinases of SH-SY5Y cells (Homo sapiens, UniProt Q8IU85); settings: 2µM, SH-SY5Y cells
Chain of cellular kinases of SH-SY5Y cells (Homo sapiens, UniProt Q8IU85) (Q8IU85 whole entry): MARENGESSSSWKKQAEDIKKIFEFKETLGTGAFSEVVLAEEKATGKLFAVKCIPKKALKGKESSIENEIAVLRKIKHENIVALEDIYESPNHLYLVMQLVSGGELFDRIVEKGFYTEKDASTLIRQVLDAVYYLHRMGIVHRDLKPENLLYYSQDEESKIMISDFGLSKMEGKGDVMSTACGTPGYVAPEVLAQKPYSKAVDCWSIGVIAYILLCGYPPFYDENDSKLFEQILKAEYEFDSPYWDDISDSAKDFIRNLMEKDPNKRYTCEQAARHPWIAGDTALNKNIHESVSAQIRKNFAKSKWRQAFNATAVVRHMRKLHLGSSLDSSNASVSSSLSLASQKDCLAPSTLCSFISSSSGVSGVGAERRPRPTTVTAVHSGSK
Excerpt: as §1

[8] = target: T3, cellular kinases of SH-SY5Y cells (Homo sapiens, UniProt O96017); settings: 2µM, SH-SY5Y cells, read-out: KiNativ in-cell binding, % Inhibition, CHEK2/CHK2
T3 construct: endogenous in cells; host or cells: SH-SY5Y
T3 sequence (O96017 whole entry): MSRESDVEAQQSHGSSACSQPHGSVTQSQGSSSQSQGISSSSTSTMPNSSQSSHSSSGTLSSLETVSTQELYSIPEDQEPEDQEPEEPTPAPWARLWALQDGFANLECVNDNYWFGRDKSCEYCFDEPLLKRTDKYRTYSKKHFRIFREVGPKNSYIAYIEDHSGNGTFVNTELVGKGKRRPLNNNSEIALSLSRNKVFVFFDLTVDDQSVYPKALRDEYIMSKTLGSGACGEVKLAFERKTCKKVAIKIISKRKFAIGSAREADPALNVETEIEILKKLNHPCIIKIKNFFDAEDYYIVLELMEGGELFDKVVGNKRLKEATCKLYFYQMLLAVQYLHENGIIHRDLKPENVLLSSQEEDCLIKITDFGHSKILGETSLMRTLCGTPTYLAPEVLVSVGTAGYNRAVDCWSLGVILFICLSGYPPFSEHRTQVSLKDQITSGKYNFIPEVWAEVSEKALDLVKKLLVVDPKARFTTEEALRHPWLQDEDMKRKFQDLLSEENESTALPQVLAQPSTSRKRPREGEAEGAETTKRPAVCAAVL
Excerpt: as §1

[9] = target: T4, cellular kinases of SH-SY5Y cells (Homo sapiens, UniProt O15021); settings: 2µM; SH-SY5Y cells; Labeling Site Lys2; DLKPDNLLVTSMGHIK; read-out: KiNativ in-cell binding, % Inhibition, MAST4
T4 construct: endogenous in cells; host or cells: SH-SY5Y
Excerpt: as §1

[10] = target: cellular kinases of SH-SY5Y cells (Homo sapiens, UniProt Q5S007); settings: 2µM; SH-SY5Y cells; Labeling Site Lys2; DLKPHNVLLFTLYPNAAIIAK; read-out: KiNativ in-cell binding, % Inhibition, LRRK2
Excerpt: as §1

[11] = target: cellular kinases of SH-SY5Y cells (Homo sapiens, UniProt P10398); settings: 2µM; SH-SY5Y cells; Labeling Site Lys2; DLKSNNIFLHEGLTVK; read-out: KiNativ in-cell binding, % Inhibition, ARAF
Chain of cellular kinases of SH-SY5Y cells (Homo sapiens, UniProt P10398) (P10398 whole entry): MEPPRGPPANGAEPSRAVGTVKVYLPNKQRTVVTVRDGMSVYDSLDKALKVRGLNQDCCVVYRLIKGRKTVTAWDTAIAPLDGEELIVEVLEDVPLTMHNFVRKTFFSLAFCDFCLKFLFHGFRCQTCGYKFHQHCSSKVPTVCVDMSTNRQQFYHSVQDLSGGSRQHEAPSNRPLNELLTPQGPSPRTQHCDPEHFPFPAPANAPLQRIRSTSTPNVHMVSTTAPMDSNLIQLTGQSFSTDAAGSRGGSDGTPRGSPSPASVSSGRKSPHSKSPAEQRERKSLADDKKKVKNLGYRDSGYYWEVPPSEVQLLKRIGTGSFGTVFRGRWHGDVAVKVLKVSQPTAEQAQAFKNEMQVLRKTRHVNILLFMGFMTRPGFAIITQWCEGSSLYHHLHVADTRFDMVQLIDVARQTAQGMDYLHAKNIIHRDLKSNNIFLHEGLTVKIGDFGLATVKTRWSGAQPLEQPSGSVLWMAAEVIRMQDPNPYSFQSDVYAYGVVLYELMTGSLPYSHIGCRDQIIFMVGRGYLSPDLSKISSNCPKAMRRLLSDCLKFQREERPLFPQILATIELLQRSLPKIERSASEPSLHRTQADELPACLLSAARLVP
Excerpt: as §1

[12] = target: T5, cellular kinases of SH-SY5Y cells (Homo sapiens, UniProt Q96PY6); settings: 2µM; SH-SY5Y cells; Labeling Site Lys2; DIKSQNIFLTK; read-out: KiNativ in-cell binding, % Inhibition, NEK1
T5 construct: endogenous in cells; host or cells: SH-SY5Y
Excerpt: as §1

[13] = target: T6, cellular kinases of SH-SY5Y cells (Homo sapiens, UniProt Q9Y2H1); settings: 2µM, SH-SY5Y cells
T6 construct: endogenous in cells; host or cells: SH-SY5Y
T6 sequence (Q9Y2H1 whole entry): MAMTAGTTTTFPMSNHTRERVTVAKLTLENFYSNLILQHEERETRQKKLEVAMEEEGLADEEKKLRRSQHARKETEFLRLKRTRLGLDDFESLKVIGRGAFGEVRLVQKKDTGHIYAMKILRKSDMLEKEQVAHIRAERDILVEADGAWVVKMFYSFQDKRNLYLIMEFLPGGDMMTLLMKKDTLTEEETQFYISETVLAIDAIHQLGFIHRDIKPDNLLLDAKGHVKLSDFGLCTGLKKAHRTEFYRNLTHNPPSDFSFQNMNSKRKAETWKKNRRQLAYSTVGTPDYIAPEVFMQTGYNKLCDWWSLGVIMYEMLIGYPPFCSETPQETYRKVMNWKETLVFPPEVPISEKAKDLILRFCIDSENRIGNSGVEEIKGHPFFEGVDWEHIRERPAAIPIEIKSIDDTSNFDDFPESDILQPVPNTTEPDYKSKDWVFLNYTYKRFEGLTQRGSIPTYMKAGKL
Excerpt: as §1

[14] = target: cellular kinases of SH-SY5Y cells (Homo sapiens, UniProt P15056); settings: 2µM; SH-SY5Y cells; labeling site Lys2; peptide DLKSNNIFLHEDLTVK
Excerpt: as §1

[15] = target: T7, cellular kinases of SH-SY5Y cells (Homo sapiens, UniProt Q9Y4K4); settings: 2µM, SH-SY5Y cells, read-out: KiNativ in-cell binding, % Inhibition, MAP4K5
T7 construct: endogenous in cells; host or cells: SH-SY5Y
T7 sequence (Q9Y4K4 whole entry): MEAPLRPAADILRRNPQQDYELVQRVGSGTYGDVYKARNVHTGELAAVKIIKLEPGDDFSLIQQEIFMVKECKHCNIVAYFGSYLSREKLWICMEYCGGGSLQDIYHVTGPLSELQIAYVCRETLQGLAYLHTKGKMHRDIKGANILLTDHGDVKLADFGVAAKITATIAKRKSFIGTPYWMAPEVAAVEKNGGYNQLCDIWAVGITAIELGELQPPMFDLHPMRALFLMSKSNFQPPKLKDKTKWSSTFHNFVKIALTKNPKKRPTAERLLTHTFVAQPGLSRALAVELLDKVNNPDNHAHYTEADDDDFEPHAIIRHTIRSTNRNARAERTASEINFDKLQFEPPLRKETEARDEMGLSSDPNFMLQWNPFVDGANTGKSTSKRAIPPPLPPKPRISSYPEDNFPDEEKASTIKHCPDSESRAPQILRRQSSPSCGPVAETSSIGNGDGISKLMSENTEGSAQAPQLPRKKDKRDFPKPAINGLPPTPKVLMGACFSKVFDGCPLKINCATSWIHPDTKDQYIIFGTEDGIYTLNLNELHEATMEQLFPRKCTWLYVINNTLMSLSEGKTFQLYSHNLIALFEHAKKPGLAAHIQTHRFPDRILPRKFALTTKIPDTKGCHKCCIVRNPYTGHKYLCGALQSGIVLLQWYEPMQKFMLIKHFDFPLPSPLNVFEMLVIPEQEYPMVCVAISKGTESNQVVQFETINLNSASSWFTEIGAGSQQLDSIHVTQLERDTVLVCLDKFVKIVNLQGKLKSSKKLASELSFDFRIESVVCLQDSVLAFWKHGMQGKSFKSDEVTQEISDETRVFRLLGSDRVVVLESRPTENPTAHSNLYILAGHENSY
Excerpt: as §1

[16] = target: T8, cellular kinases of SH-SY5Y cells (Homo sapiens, UniProt Q7RTN6); settings: 2µM; SH-SY5Y cells; Labeling Site Activation Loop; YSVKVLPWLSPEVLQQNLQGYDAK; read-out: KiNativ in-cell binding, % Inhibition, STRADA
T8 construct: endogenous in cells; host or cells: SH-SY5Y
Excerpt: as §1

[17] = target: cellular kinases of SH-SY5Y cells (Homo sapiens, UniProt Q00534); settings: 2µM; SH-SY5Y cells; labeling site Lys2; peptide DLKPQNILVTSSGQIK
Chain of cellular kinases of SH-SY5Y cells (Homo sapiens, UniProt Q00534) (Q00534 whole entry): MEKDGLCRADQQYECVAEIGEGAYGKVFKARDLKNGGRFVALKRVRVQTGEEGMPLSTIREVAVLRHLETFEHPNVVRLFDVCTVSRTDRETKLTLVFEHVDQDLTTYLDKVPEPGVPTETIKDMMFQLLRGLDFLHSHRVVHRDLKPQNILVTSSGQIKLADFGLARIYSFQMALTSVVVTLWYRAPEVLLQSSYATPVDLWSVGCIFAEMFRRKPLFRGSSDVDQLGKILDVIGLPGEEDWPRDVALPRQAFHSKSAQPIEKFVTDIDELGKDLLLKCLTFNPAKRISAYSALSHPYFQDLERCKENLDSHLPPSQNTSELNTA
Excerpt: as §1

[18] = target: cellular kinases of SH-SY5Y cells (Homo sapiens, UniProt P07332); settings: 2µM; SH-SY5Y cells; Labeling Site Lys1; LRADNTLVAVKSCR; read-out: KiNativ in-cell binding, % Inhibition, FES
Chain of cellular kinases of SH-SY5Y cells (Homo sapiens, UniProt P07332) (P07332 whole entry): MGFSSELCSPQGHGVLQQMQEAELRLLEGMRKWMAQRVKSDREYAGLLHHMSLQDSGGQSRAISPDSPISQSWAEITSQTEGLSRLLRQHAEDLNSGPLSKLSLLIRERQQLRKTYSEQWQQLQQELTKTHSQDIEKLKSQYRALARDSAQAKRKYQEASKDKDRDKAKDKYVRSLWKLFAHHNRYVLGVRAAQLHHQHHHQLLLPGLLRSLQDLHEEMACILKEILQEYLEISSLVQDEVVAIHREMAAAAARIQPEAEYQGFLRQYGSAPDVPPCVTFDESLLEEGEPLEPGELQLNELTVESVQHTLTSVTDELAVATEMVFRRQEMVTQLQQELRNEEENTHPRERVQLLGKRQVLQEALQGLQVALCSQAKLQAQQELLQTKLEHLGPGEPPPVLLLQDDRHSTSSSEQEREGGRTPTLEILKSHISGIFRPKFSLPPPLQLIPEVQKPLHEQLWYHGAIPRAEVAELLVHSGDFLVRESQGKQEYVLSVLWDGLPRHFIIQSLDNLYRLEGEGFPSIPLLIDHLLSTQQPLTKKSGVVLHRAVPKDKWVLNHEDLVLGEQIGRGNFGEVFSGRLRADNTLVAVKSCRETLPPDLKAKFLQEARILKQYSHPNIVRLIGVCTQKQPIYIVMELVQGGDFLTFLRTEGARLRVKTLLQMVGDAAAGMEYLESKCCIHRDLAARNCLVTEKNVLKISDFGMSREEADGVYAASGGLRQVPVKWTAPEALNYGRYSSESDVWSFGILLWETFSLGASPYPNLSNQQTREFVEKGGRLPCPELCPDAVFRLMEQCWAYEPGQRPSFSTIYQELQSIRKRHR
Excerpt: as §1

Cc1cccc(-c2nc(Nc3ccc4ncsc4c3)c3ccccc3n2)n1 [NK140]
inhibition at 2 µM [1]: -1.3% | KiNativ in-cell binding, % Inhibition, CaMK2a, CaMK2b, CaMK2d, CaMK2g [2]: 16.4% | KiNativ in-cell binding, AKT1, AKT3 [2]: -0.000814 | KiNativ in-cell binding, % Inhibition, AKT1, AKT3 ([2]; 2 µM): 34.2% | KiNativ in-cell binding, % Inhibition, STK17A/DRAK1, STK17B/DRAK2 ([2]; 2µM, SH-SY5Y cells, Labeling Site ATP Loop, GKFAVVR): -4.6% | KiNativ in-cell binding, % Inhibition, AURKA/AurA, AURKB/AurB, AURKC/AurC ([2]; 2µM, SH-SY5Y cells, Labeling Site ATP Loop, GKFGNVYLAR): 24.2% | KiNativ in-cell binding, % Inhibition, CSNK1G1, CSNK1G2, CSNK1G3 ([2]; 2µM, SH-SY5Y cells, Labeling Site ATP Loop, KIGCGNFGELR): 8.1% | KiNativ in-cell binding, % Inhibition, Wnk1, Wnk2, Wnk4 ([2]; 2µM, SH-SY5Y cells, Labeling Site Activation Loop, IGDLGLATLKR): 6.9% | KiNativ in-cell binding, % Inhibition, MERTK/MER, TYRO3 ([2]; 2µM, SH-SY5Y cells, Labeling Site Activation Loop, KIYSGDYYR): -4.5% | KiNativ in-cell binding, % Inhibition, KSR1, KSR2 ([2]; 2µM, SH-SY5Y cells, Labeling Site Activation Loop, SKNVFYDNGK): 5.1% | KiNativ in-cell binding, % Inhibition, MARK3, MARK4 ([2]; 2µM, SH-SY5Y cells, Labeling Site Lys1, EVAIKIIDK): 2.7% | KiNativ in-cell binding, % Inhibition, MARK1, MARK2 ([2]; 2µM, SH-SY5Y cells, Labeling Site Lys1, EVAVKIIDK): 1.8% | KiNativ in-cell binding, % Inhibition, TAOK1, TAOK3 ([2]; 2µM, SH-SY5Y cells, Labeling Site Lys2, DIKAGNILLTEPGQVK): 26.0% | KiNativ in-cell binding, % Inhibition, MAP3K2, MAP3K3 ([2]; 2µM, SH-SY5Y cells, Labeling Site Lys2, DIKGANILR): 28.5% | KiNativ in-cell binding, % Inhibition, NEK6, NEK7 ([2]; 2µM, SH-SY5Y cells, Labeling Site Lys2, DIKPANVFITATGVVK): -7.5% | KiNativ in-cell binding, % Inhibition, MARK2, MARK3 ([2]; 2µM, SH-SY5Y cells, Labeling Site Lys2, DLKAENLLLDADMNIK): -28.6% | KiNativ in-cell binding, % Inhibition, Wnk1, Wnk2, Wnk3 ([2]; 2µM, SH-SY5Y cells, Labeling Site Lys2, DLKCDNIFITGPTGSVK): 6.4% | KiNativ in-cell binding, % Inhibition, PRKCA/PKCa, PRKCB/PKCb ([2]; 2µM, SH-SY5Y cells, Labeling Site Lys2, DLKLDNVMLDSEGHIK): -2.4% | KiNativ in-cell binding, % Inhibition, CSNK1D, CSNK1E ([2]; 2µM, SH-SY5Y cells, Labeling Site Lys2, DVKPDNFLMGLGKK): 19.5% | KiNativ in-cell binding, % Inhibition, ROCK1, ROCK2 ([2]; 2µM, SH-SY5Y cells, Labeling Site Lys2, DVKPDNMLLDK): -44.8% | KiNativ in-cell binding, % Inhibition, MAPKAPK2, MAPKAPK3 ([2]; 2µM, SH-SY5Y cells, Labeling Site Lys2, DVKPENLLYTSK): 16.8% | KiNativ in-cell binding, % Inhibition, PRKCA/PKCa, PRKCG/PKCg ([2]; 2µM, SH-SY5Y cells, Labeling Site Other, NLIPMDPNGLSDPYVKLK): -18.8% | KiNativ in-cell binding, % Inhibition, PI4KA, PI4KAP2 ([2]; 2µM, SH-SY5Y cells, Labeling Site Unassigned, SGTPMQSAAKAPYLAK): 1.2% | KiNativ in-cell binding, IKKe, TBK1 ([2]; 2µM, SH-SY5Y cells, labeling site Lys2, peptide DIKPGNIMR): -85.5 | KiNativ in-cell binding, MYO3A, MYO3B ([2]; 2µM, SH-SY5Y cells, labeling site Lys2, peptide DVKGNNILLTTEGGVK): 0.9 | KiNativ in-cell binding, MAP2K1, MAP2K2 ([2]; 2µM, SH-SY5Y cells, labeling site Lys2, peptide DVKPSNILVNSR): -3.2 | KiNativ in-cell binding, PAN3 ([3]; peptide IQKSSNFGYITSCYK): -119.6 | KiNativ in-cell binding, PAN3 ([3]; peptide VMDPTKILITGK): -99.0 | inhibition at 2 µM [4]: 30.4% | inhibition at 2 µM [5]: 21.9% | inhibition at 2 µM [6]: -13.4% | inhibition at 2 µM ([7]; Labeling Site Lys1, LFAVKCIPK, read-out: KiNativ in-cell binding, % Inhibition, CaMK1d): -23% | KiNativ in-cell binding, CaMK1d ([7]; labeling site Lys2, peptide DLKPENLLYYSQDEESK): -24.1 | inhibition at 2 µM ([8]; Labeling Site Lys1, VAIKIISK): 7.7% | inhibition at 2 µM ([8]; Labeling Site Lys2, DLKPENVLLSSQEEDCLIK): 15.3% | inhibition at 2 µM [9]: 27.2% | inhibition at 2 µM [10]: 6% | inhibition at 2 µM [11]: 28.7% | inhibition at 2 µM [12]: -13% | inhibition at 2 µM ([13]; Labeling Site Lys1, DTGHIYAMKILR, read-out: KiNativ in-cell binding, % Inhibition, STK38L/NDR2): -47.2% | inhibition at 2 µM ([13]; Labeling Site Lys2, DIKPDNLLLDAK, read-out: KiNativ in-cell binding, % Inhibition, NDR2): -39.9% | KiNativ in-cell binding, BRAF, BRAF V600E [14]: -25.8 | inhibition at 2 µM ([15]; Labeling Site Lys1, NVHTGELAAVKIIK): 27.4% | inhibition at 2 µM ([15]; Labeling Site Lys2, DIKGANILLTDHGDVK): 26.4% | inhibition at 2 µM [16]: 48.6% | KiNativ in-cell binding, CDK6 [17]: -30.7 | inhibition at 2 µM [18]: 17.1%
